Test results taken from ChEMBL document CHEMBL4725382, “Uridine natural products: Challenging targets and inspiration for novel small molecule inhibitors” (Bioorg Med Chem, 2020).
≈ marks a conversion by molar mass, not a printed value.

Assays:
[1] = Inhibition of Campylobacter concisus phosphoglycosyl transferase Pg1C
[2] = Inhibition of MraY in Staphylococcus aureus by fluorescence assay
Staphylococcus aureus = experiment: Inhibition of MraY in Staphylococcus aureus at 1 mM by fluorescence assay relative to control
[3] = Inhibition of Clostridium difficile phosphoglycosyl transferase; set-up: species or system Clostridioides difficile
[4] = system: Mycobacterium tuberculosis; experiment: Antimycobacterial activity against Mycobacterium tuberculosis H37Rv ATCC 27294 after 14 days by resazurin reduction microplate assay; type: functional; conditions: H37Rv ATCC 27294, 336 h
[5] = Inhibition of Campylobacter jejuni phosphoglycosyl transferase Pg1D

Structure (SMILES)	MIC50 [4]	also measured
O=C(O)CC[C@H](NC(=O)Cn1cc(-c2cccc(F)c2)nn1)C(=O)NC[C@H]1O[C@@H](n2ccc(=O)[nH]c2=O)[C@H](O)[C@@H]1O	–	IC50 [1]: 72 µM
Cc1cn([C@H]2C[C@H](O)[C@@H](C[C@H](NCCCNC(=O)[C@H](CC(C)C)NC(=O)[C@H](CCCCN)NC(=O)N[C@H](C(=O)O)C(C)C)C(=O)O)O2)c(=O)[nH]c1=O	–	IC50 [2]: > 100 µM; inhibition (Staphylococcus aureus): 38%
CC(C)C[C@H](NC(=O)[C@H](CCCCN)NC(=O)N[C@H](C(=O)O)C(C)C)C(=O)NCCCN[C@@H](C[C@H]1O[C@@H](n2ccc(=O)[nH]c2=O)C[C@@H]1O)C(=O)O	–	IC50 [2]: 4.6 µM
O=c1ccn([C@@H]2O[C@H](CNc3c(NCc4cccc(F)c4)c(=O)c3=O)[C@@H](O)[C@H]2O)c(=O)[nH]1	–	IC50 [3]: 174 µM
CC(C)C[C@H](NC(=O)[C@H](CCCCN)NC(=O)N[C@H](C(=O)O)C(C)C)C(=O)NCCCN[C@@H](C[C@H]1O[C@@H](n2cc(F)c(=O)[nH]c2=O)[C@H](O)[C@@H]1O)C(=O)O	–	IC50 [2]: > 100 µM; inhibition (Staphylococcus aureus): 40%
CC(C)C[C@H](NC(=O)N[C@@H](Cc1c[nH]c2ccccc12)C(=O)O)C(=O)N[C@H](C(=O)NC[C@H]1C[C@@H](O)[C@H](n2ccc(=O)[nH]c2=O)O1)[C@H](C)N(C)C(=O)[C@@H](N)[C@@H](C)O	1.35 µM (≈ 1.06 µg/mL)	–
C[C@@H]([C@H](NC(=O)[C@H](Cc1c[nH]c2ccccc12)NC(=O)N[C@@H](Cc1c[nH]c2ccccc12)C(=O)O)C(=O)NC[C@H]1C[C@@H](O)[C@H](n2ccc(=O)[nH]c2=O)O1)N(C)C(=O)CN	0.44 µM (≈ 0.359 µg/mL)	–
CC(C)C[C@H](NC(=O)[C@H](CCCCN)NC(=O)N[C@@H](C)C(=O)O)C(=O)NCCCN[C@@H](C[C@H]1O[C@@H](n2ccc(=O)[nH]c2=O)[C@H](O)[C@@H]1O)C(=O)O	–	IC50 [2]: 21 µM
O=C(Cn1cc(-c2cccc(F)c2)nn1)NC[C@H]1O[C@@H](n2ccc(=O)[nH]c2=O)[C@H](O)[C@@H]1O	–	IC50 [5]: 35 µM
CC(C)[C@H](NC(=O)N[C@@H](CCCCN)C(=O)N[C@@H](C)C(=O)NCCCN[C@@H](C[C@H]1O[C@@H](n2ccc(=O)[nH]c2=O)[C@H](O)[C@@H]1O)C(=O)O)C(=O)O	–	IC50 [2]: 95 µM
CC(C)C[C@H](NC(=O)N[C@@H](Cc1c[nH]c2ccccc12)C(=O)O)C(=O)N[C@H](C(=O)NC[C@H]1C[C@@H](O)[C@H](n2ccc(=O)[nH]c2=O)O1)[C@H](C)N(C)C(=O)[C@H](C)N	0.6 µM (≈ 0.453 µg/mL)	–
C[C@@H](O)[C@H](NC(=O)N[C@@H](Cc1c[nH]c2ccccc12)C(=O)O)C(=O)N[C@H](C(=O)NC[C@H]1C[C@@H](O)[C@H](n2ccc(=O)[nH]c2=O)O1)[C@H](C)N(C)C(=O)CN	2.8 µM (≈ 2.04 µg/mL)	–
C[C@@H]([C@H](NC(=O)[C@H](Cc1ccccc1)NC(=O)N[C@@H](Cc1c[nH]c2ccccc12)C(=O)O)C(=O)NC[C@H]1C[C@@H](O)[C@H](n2ccc(=O)[nH]c2=O)O1)N(C)C(=O)CN	0.26 µM (≈ 0.202 µg/mL)	–
CC(C)C[C@H](NC(=O)N[C@@H](Cc1c[nH]c2ccccc12)C(=O)O)C(=O)N[C@H](C(=O)NC[C@H]1C[C@@H](O)[C@H](n2ccc(=O)[nH]c2=O)O1)[C@H](C)N(C)C(=O)[C@@H](N)Cc1ccccc1	4.05 µM (≈ 3.37 µg/mL)	–
CC(C)[C@H](NC(=O)N[C@@H](Cc1c[nH]c2ccccc12)C(=O)O)C(=O)N[C@H](C(=O)NC[C@H]1C[C@@H](O)[C@H](n2ccc(=O)[nH]c2=O)O1)[C@H](C)N(C)C(=O)CN	0.88 µM (≈ 0.64 µg/mL)	–
COc1ccc2cc(-c3cn(CC(=O)N[C@@H](CCC(=O)O)C(=O)NC[C@H]4O[C@@H](n5ccc(=O)[nH]c5=O)[C@H](O)[C@@H]4O)nn3)ccc2c1	–	IC50 [1]: 116 µM

Structure (SMILES)	MIC50 [4]	also measured
C[C@@H]([C@H](NC(=O)[C@H](CC1CCCCC1)NC(=O)N[C@@H](Cc1c[nH]c2ccccc12)C(=O)O)C(=O)NC[C@H]1C[C@@H](O)[C@H](n2ccc(=O)[nH]c2=O)O1)N(C)C(=O)CN	0.08 µM (≈ 0.0625 µg/mL)	–
CC(C)C[C@H](NC(=O)N[C@@H](Cc1c[nH]c2ccccc12)C(=O)O)C(=O)N[C@H](C(=O)NC[C@H]1C[C@@H](O)[C@H](n2ccc(=O)[nH]c2=O)O1)[C@H](C)N(C)C(=O)[C@@H](N)CC1CCCCC1	1 µM (≈ 0.838 µg/mL)	–
CC(C)C[C@H](NC(=O)[C@H](C)NC(=O)N[C@H](C(=O)O)C(C)C)C(=O)NCCCN[C@@H](C[C@H]1O[C@@H](n2ccc(=O)[nH]c2=O)[C@H](O)[C@@H]1O)C(=O)O	–	IC50 [2]: 14 µM
CCCCC[C@H](NC(=O)N[C@@H](Cc1c[nH]c2ccccc12)C(=O)O)C(=O)N[C@H](C(=O)NC[C@H]1C[C@@H](O)[C@H](n2ccc(=O)[nH]c2=O)O1)[C@H](C)N(C)C(=O)CN	0.51 µM (≈ 0.385 µg/mL)	–
C[C@@H]([C@H](NC(=O)[C@H](Cc1ccc(C(F)(F)F)cc1)NC(=O)N[C@@H](Cc1c[nH]c2ccccc12)C(=O)O)C(=O)NC[C@H]1C[C@@H](O)[C@H](n2ccc(=O)[nH]c2=O)O1)N(C)C(=O)CN	0.2 µM (≈ 0.169 µg/mL)	–
CC(C)C[C@H](NC(=O)N[C@@H](Cc1c[nH]c2ccccc12)C(=O)O)C(=O)N[C@H](C(=O)NC[C@H]1C[C@@H](O)[C@H](n2ccc(=O)[nH]c2=O)O1)[C@H](C)N(C)C(=O)[C@@H](N)CC(=O)O	9.8 µM (≈ 7.84 µg/mL)	–
CC(C)C[C@H](NC(=O)[C@H](CCCCN)NC(=O)N[C@H](C(=O)O)C(C)C)C(=O)NCCCN[C@@H](C[C@H]1O[C@@H](n2ccc(=O)[nH]c2=O)[C@H](O)[C@@H]1O)C(=O)O	–	IC50 [2]: 2.5 µM
C[C@@H]([C@H](NC(=O)[C@@H](NC(=O)N[C@@H](Cc1c[nH]c2ccccc12)C(=O)O)C1CCCCC1)C(=O)NC[C@H]1C[C@@H](O)[C@H](n2ccc(=O)[nH]c2=O)O1)N(C)C(=O)CN	0.51 µM (≈ 0.392 µg/mL)	–
C[C@@H]([C@H](NC(=O)[C@@H](NC(=O)N[C@@H](Cc1c[nH]c2ccccc12)C(=O)O)c1ccccc1)C(=O)NC[C@H]1C[C@@H](O)[C@H](n2ccc(=O)[nH]c2=O)O1)N(C)C(=O)CN	> 6.26 µM	–
CC(C)C[C@H](NC(=O)N[C@@H](Cc1c[nH]c2ccccc12)C(=O)O)C(=O)N[C@H](C(=O)NC[C@H]1C[C@@H](O)[C@H](n2ccc(=O)[nH]c2=O)O1)[C@H](C)N(C)C(=O)[C@@H](N)Cc1ccc2ccccc2c1	3 µM (≈ 2.65 µg/mL)	–
CC(C)C[C@H](NC(=O)N[C@@H](Cc1c[nH]c2ccccc12)C(=O)O)C(=O)N[C@H](C(=O)NC[C@H]1C[C@@H](O)[C@H](n2ccc(=O)[nH]c2=O)O1)[C@H](C)N(C)C(=O)[C@@H](N)Cc1cccnc1	5.85 µM (≈ 4.87 µg/mL)	–
C[C@@H]([C@H](NC(=O)[C@H](Cc1cccnc1)NC(=O)N[C@@H](Cc1c[nH]c2ccccc12)C(=O)O)C(=O)NC[C@H]1C[C@@H](O)[C@H](n2ccc(=O)[nH]c2=O)O1)N(C)C(=O)CN	0.98 µM (≈ 0.761 µg/mL)	–
CC(C)C[C@H](NC(=O)N[C@@H](Cc1c[nH]c2ccccc12)C(=O)O)C(=O)N[C@H](C(=O)NC[C@H]1C[C@@H](O)[C@H](n2ccc(=O)[nH]c2=O)O1)[C@H](C)N(C)C(=O)CN	0.63 µM (≈ 0.467 µg/mL)	–
CC(C)C[C@H](NC(=O)[C@H](CCCCN)NC(=O)N[C@H](C(=O)O)C(C)C)C(=O)NCCCN[C@@H](C[C@H]1O[C@@H](N2CCC(=O)NC2=O)[C@H](O)[C@@H]1O)C(=O)O	–	IC50 [2]: 27 µM
CC(C)C[C@H](NC(=O)N[C@@H](Cc1c[nH]c2ccccc12)C(=O)O)C(=O)N[C@H](C(=O)NC[C@H]1C[C@@H](O)[C@H](n2ccc(=O)[nH]c2=O)O1)[C@H](C)N(C)C(=O)[C@@H](N)CCCN	0.95 µM (≈ 0.759 µg/mL)	–
C[C@@H]([C@H](NC(=O)[C@H](CCCCN)NC(=O)N[C@@H](Cc1c[nH]c2ccccc12)C(=O)O)C(=O)NC[C@H]1C[C@@H](O)[C@H](n2ccc(=O)[nH]c2=O)O1)N(C)C(=O)CN	0.7 µM (≈ 0.53 µg/mL)	–
